Laboratory results taken from US12180193B2, “Accelerating fibrosarcoma protein degrading compounds and associated methods of use” (Arvinas Operations, Inc., priority 2020, dated 2024).

Key:
[1] = molecular target: T1, BRAF V600E (Homo sapiens, UniProt P15056, V600E); test: Cellular assay of target protein degradation, T-Rex 293 cells stably transfected with HA-BRAF_V600E (HA immunofluorescence, high content imaging); assay type: cell-based; settings: T-Rex 293 HA-BRAF V600E; for DC50: half maximal degradation, read-out: BRaf V600E DC50; for Dmax: maximum degradation observed
T1 construct: expressed in transfected cells
T1 sequence (P15056 whole entry V600E): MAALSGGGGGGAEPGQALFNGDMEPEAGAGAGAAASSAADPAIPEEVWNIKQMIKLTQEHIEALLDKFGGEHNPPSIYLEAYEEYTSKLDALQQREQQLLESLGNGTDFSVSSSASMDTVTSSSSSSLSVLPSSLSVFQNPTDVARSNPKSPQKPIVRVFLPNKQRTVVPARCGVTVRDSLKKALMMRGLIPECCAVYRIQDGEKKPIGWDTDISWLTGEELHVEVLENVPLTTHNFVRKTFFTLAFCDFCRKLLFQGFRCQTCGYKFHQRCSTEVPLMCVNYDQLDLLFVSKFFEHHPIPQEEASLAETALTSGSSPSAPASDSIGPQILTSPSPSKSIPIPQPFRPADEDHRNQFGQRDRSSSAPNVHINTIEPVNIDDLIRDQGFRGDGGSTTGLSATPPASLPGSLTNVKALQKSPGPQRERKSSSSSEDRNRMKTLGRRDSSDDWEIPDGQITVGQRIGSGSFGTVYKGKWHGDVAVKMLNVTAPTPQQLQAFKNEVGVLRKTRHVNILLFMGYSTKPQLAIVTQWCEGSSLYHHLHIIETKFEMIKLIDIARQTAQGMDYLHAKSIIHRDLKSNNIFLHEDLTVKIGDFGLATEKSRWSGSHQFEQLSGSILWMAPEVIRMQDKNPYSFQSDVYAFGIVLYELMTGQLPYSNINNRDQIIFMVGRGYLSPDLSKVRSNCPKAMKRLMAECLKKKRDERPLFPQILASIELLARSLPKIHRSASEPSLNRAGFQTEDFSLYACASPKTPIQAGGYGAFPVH
Summary of the method: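 HA immunofluorescence on fixed cells, imaged by high-content reader, measured loss of HA-BRAF V600E in stably transfected T-Rex 293 cells induced with 1 ng/mL doxycycline. Compounds were applied for 24 h at 37 °C (final 0.1 nM–1 μM, 0.1% DMSO); DC50 and Dmax (% of control) were reported.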

[2] = molecular target: T2, BRAF G466V (Homo sapiens, UniProt P15056, G466V); test: Cellular assay of target protein degradation, T-Rex 293 cells stably transfected with HA-BRAF G466V (HA immunofluorescence, high content imaging); assay type: cell-based; settings: T-Rex 293 HA-BRAF G466V; for DC50: half maximal degradation, read-out: BRaf G466V DC50; for Dmax: maximum degradation observed
T2 construct: expressed in transfected cells
T2 sequence (P15056 whole entry G466V): as the sequence (P15056 whole entry V600E) above, with G466V, E600V counted along it
Summary of the method: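 HA-BRAF G466V levels were read by HA immunofluorescence and high-content imaging after 24 h compound exposure (final 30 nM–3 pM, 0.1% DMSO, 37 °C). Expression was induced with 0.75 ng/mL doxycycline. Outputs: half-maximal degradation concentration (DC50) and maximal degradation (Dmax) relative to control.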

SMILES | DC50 [1] | DC50 [2] | Dmax [2] | Dmax [1]
O=C1CC[C@@H](NC(=O)N2CCCc3c(C4CCN(CC5CCN(c6ccc(-c7cnc8[nH]cc(C(=O)c9c(F)ccc(NS(=O)(=O)N%10CC[C@@H](F)C%10)c9F)c8c7)cc6)CC5)CC4)ccnc32)C(=O)N1 [Compound 367, 5-(1-{[1-(4-{3-[2,6-difluoro-3-({[(3R)-3-fluoropyrrolidin-1-yl]sulfonyl}amino)benzoyl]-1H-pyrrolo[2,3-b]pyridin-5-yl}phenyl)piperidin-4-yl]methyl}piperidin-4-yl)-N-[(3R)-2,6-dioxopiperidin-3-yl]-1,2,3,4-tetrahydro-1,8-naphthyridine-1-carboxamide] | > 500 nM | 1 to 10 nM | < 35% | –
O=C1CCC(c2ccc(N3CC4(CN(CC5CCN(c6ccc(-c7cnc8[nH]cc(C(=O)c9c(F)ccc(NS(=O)(=O)N%10CC[C@@H](F)C%10)c9F)c8c7)cc6)CC5)C4)C3)cc2)C(=O)N1 (stereo partly drawn) [Compound 368, (3R)-N-[3-(5-{4-[4-({6-[4-(2,6-dioxopiperidin-3-yl)phenyl]-2,6-diazaspiro[3.3]heptan-2-yl}methyl)piperidin-1-yl]phenyl}-1H-pyrrolo[2,3-b]pyridine-3-carbonyl)-2,4-difluorophenyl]-3-fluoropyrrolidine-1-sulfonamide] | 5 to 50 nM | 1 to 10 nM | 35 to 70% | 35 to 70%
O=C1CC[C@H](NC(=O)N2CCCc3c(N4CCN(CC5CCN(c6ccc(-c7cnc8[nH]cc(C(=O)c9c(F)ccc(NS(=O)(=O)N%10CC[C@@H](F)C%10)c9F)c8c7)cc6)CC5)CC4)ccnc32)C(=O)N1 [Compound 369, 5-(4-{[1-(4-{3-[2,6-difluoro-3-({[(3R)-3-fluoropyrrolidin-1-yl]sulfonyl}amino)benzoyl]-1H-pyrrolo[2,3-b]pyridin-5-yl}phenyl)piperidin-4-yl]methyl}piperazin-1-yl)-N-[(3S)-2,6-dioxopiperidin-3-yl]-1,2,3,4-tetrahydro-1,8-naphthyridine-1-carboxamide] | 5 to 50 nM | 1 to 10 nM | > 70% | 35 to 70%
O=C1CCC(NC(=O)N2CCCc3c(N4CCN(CC5CCN(c6ccc(-c7cnc8[nH]cc(C(=O)c9c(F)ccc(NS(=O)(=O)N%10CC[C@@H](F)C%10)c9F)c8c7)cc6)CC5)CC4)ccnc32)C(=O)N1 (stereo partly drawn) [Compound 370, 5-(4-{[1-(4-{3-[2,6-difluoro-3-({[(3R)-3-fluoropyrrolidin-1-yl]sulfonyl}amino)benzoyl]-1H-pyrrolo[2,3-b]pyridin-5-yl}phenyl)piperidin-4-yl]methyl}piperazin-1-yl)-N-(2,6-dioxopiperidin-3-yl)-1,2,3,4-tetrahydro-1,8-naphthyridine-1-carboxamide] | 5 to 50 nM | 1 to 10 nM | > 70% | 35 to 70%
O=C1CC[C@H](NC(=O)N2CCCc3c(N4CCC(CN5CCN(c6ccc(-c7cnc8[nH]cc(C(=O)c9c(F)ccc(NS(=O)(=O)N%10CC[C@@H](F)C%10)c9F)c8c7)cc6)CC5)CC4)ccnc32)C(=O)N1 [Compound 371, 5-(4-{[4-(4-{3-[2,6-difluoro-3-({[(3R)-3-fluoropyrrolidin-1-yl]sulfonyl}amino)benzoyl]-1H-pyrrolo[2,3-b]pyridin-5-yl}phenyl)piperazin-1-yl]methyl}piperidin-1-yl)-N-[(3S)-2,6-dioxopiperidin-3-yl]-1,2,3,4-tetrahydro-1,8-naphthyridine-1-carboxamide] | 50 to 500 nM | 1 to 10 nM | > 70% | > 70%
O=C1CC[C@@H](NC(=O)N2CCCc3c(N4CCC(CN5CCN(c6ccc(-c7cnc8[nH]cc(C(=O)c9c(F)ccc(NS(=O)(=O)N%10CC[C@@H](F)C%10)c9F)c8c7)cc6)CC5)CC4)ccnc32)C(=O)N1 [Compound 372, 5-(4-{[4-(4-{3-[2,6-difluoro-3-({[(3R)-3-fluoropyrrolidin-1-yl]sulfonyl}amino)benzoyl]-1H-pyrrolo[2,3-b]pyridin-5-yl}phenyl)piperazin-1-yl]methyl}piperidin-1-yl)-N-[(3R)-2,6-dioxopiperidin-3-yl]-1,2,3,4-tetrahydro-1,8-naphthyridine-1-carboxamide] | > 500 nM | > 30 nM | – | –
O=C1CC[C@H](NC(=O)c2ccc(N3CC4(CN(CCc5ccc(-c6cnc7[nH]cc(C(=O)c8c(F)ccc(NS(=O)(=O)N9CC[C@@H](F)C9)c8F)c7c6)cc5)C4)C3)cc2F)C(=O)N1 [Compound 373, 4-[6-(2-[4-[3-(2,6-difluoro-3-[[(3R)-3-fluoropyrrolidin-1-ylsulfonyl]amino]benzoyl)-1H-pyrrolo[2,3-b]pyridin-5-yl]phenyl]ethyl)-2,6-diazaspiro[3.3]heptan-2-yl]-N-[(3S)-2,6-dioxopiperidin-3-yl]-2-fluorobenzamide] | 5 to 50 nM | 1 to 10 nM | > 70% | 35 to 70%
O=C1CCC(NC(=O)c2ccc(N3CC4(CN(CCc5ccc(-c6cnc7[nH]cc(C(=O)c8c(F)ccc(NS(=O)(=O)N9CC[C@@H](F)C9)c8F)c7c6)cc5)C4)C3)cc2F)C(=O)N1 (stereo partly drawn) [Compound 374, 4-{6-[2-(4-{3-[2,6-difluoro-3-({[(3R)-3-fluoropyrrolidin-1-yl]sulfonyl}amino)benzoyl]-1H-pyrrolo[2,3-b]pyridin-5-yl}phenyl)ethyl]-2,6-diazaspiro[3.3]heptan-2-yl}-N-(2,6-dioxopiperidin-3-yl)-2-fluorobenzamide] | 5 to 50 nM | < 1 nM | 35 to 70% | 35 to 70%
O=C1CC[C@H](NC(=O)c2ccc(C3CCN(CC4CCN(c5ncc(-c6cnc7[nH]cc(C(=O)c8c(F)ccc(NS(=O)(=O)N9CC[C@@H](F)C9)c8F)c7c6)cn5)CC4)CC3)cc2F)C(=O)N1 [Compound 375, 4-(1-{[1-(5-{3-[2,6-difluoro-3-({[(3R)-3-fluoropyrrolidin-1-yl]sulfonyl}amino)benzoyl]-1H-pyrrolo[2,3-b]pyridin-5-yl}pyrimidin-2-yl)piperidin-4-yl]methyl}piperidin-4-yl)-N-[(3S)-2,6-dioxopiperidin-3-yl]-2-fluorobenzamide] | 50 to 500 nM | 1 to 10 nM | 35 to 70% | 35 to 70%
O=C1CCC(NC(=O)c2ccc(C3CCN(CC4CCN(c5ncc(-c6cnc7[nH]cc(C(=O)c8c(F)ccc(NS(=O)(=O)N9CC[C@@H](F)C9)c8F)c7c6)cn5)CC4)CC3)cc2F)C(=O)N1 (stereo partly drawn) [Compound 376, 4-(1-{[1-(5-{3-[2,6-difluoro-3-({[(3R)-3-fluoropyrrolidin-1-yl]sulfonyl}amino)benzoyl]-1H-pyrrolo[2,3-b]pyridin-5-yl}pyrimidin-2-yl)piperidin-4-yl]methyl}piperidin-4-yl)-N-(2,6-dioxopiperidin-3-yl)-2-fluorobenzamide] | 50 to 500 nM | 1 to 10 nM | 35 to 70% | 35 to 70%
O=C1CC[C@H](NC(=O)c2ccc(N3CCN(CCN4CCN(c5ccc(-c6cnc7[nH]cc(C(=O)c8c(F)ccc(NS(=O)(=O)N9CC[C@@H](F)C9)c8F)c7c6)cc5)CC4)CC3)cc2F)C(=O)N1 [Compound 377, 4-(4-{2-[4-(4-{3-[2,6-difluoro-3-({[(3R)-3-fluoropyrrolidin-1-yl]sulfonyl}amino)benzoyl]-1H-pyrrolo[2,3-b]pyridin-5-yl}phenyl)piperazin-1-yl]ethyl}piperazin-1-yl)-N-[(3S)-2,6-dioxopiperidin-3-yl]-2-fluorobenzamide] | 5 to 50 nM | 1 to 10 nM | 35 to 70% | 35 to 70%
O=C1CCC(NC(=O)c2ccc(N3CCN(CCN4CCN(c5ccc(-c6cnc7[nH]cc(C(=O)c8c(F)ccc(NS(=O)(=O)N9CC[C@@H](F)C9)c8F)c7c6)cc5)CC4)CC3)cc2F)C(=O)N1 (stereo partly drawn) [Compound 378, 4-(4-{2-[4-(4-{3-[2,6-difluoro-3-({[(3R)-3-fluoropyrrolidin-1-yl]sulfonyl}amino)benzoyl]-1H-pyrrolo[2,3-b]pyridin-5-yl}phenyl)piperazin-1-yl]ethyl}piperazin-1-yl)-N-(2,6-dioxopiperidin-3-yl)-2-fluorobenzamide] | 5 to 50 nM | < 1 nM | < 35% | < 35%
O=C1CC[C@H](NC(=O)N2CCCc3c(N4CC5(CN(CCc6ccc(-c7cnc8[nH]cc(C(=O)c9c(F)ccc(NS(=O)(=O)N%10CC[C@@H](F)C%10)c9F)c8c7)cc6)C5)C4)ccnc32)C(=O)N1 [Compound 379, 5-{6-[2-(4-{3-[2,6-difluoro-3-({[(3R)-3-fluoropyrrolidin-1-yl]sulfonyl}amino)benzoyl]-1H-pyrrolo[2,3-b]pyridin-5-yl}phenyl)ethyl]-2,6-diazaspiro[3.3]heptan-2-yl}-N-[(3S)-2,6-dioxopiperidin-3-yl]-1,2,3,4-tetrahydro-1,8-naphthyridine-1-carboxamide] | 50 to 500 nM | 1 to 10 nM | 35 to 70% | 35 to 70%
O=C1CC[C@@H](NC(=O)N2CCCc3c(N4CC5(CN(CCc6ccc(-c7cnc8[nH]cc(C(=O)c9c(F)ccc(NS(=O)(=O)N%10CC[C@@H](F)C%10)c9F)c8c7)cc6)C5)C4)ccnc32)C(=O)N1 [Compound 380, 5-{6-[2-(4-{3-[2,6-difluoro-3-({[(3R)-3-fluoropyrrolidin-1-yl]sulfonyl}amino)benzoyl]-1H-pyrrolo[2,3-b]pyridin-5-yl}phenyl)ethyl]-2,6-diazaspiro[3.3]heptan-2-yl}-N-[(3R)-2,6-dioxopiperidin-3-yl]-1,2,3,4-tetrahydro-1,8-naphthyridine-1-carboxamide] | > 500 nM | 1 to 10 nM | < 35% | –
